Experimental data as given in ChEMBL document CHEMBL1649581, “Evaluation of target specificity of antibacterial agents using Staphylococcus aureus ddlA mutants and D-cycloserine in a silkworm infection model” (2009).
Converted amounts (≈) assume the structure as drawn.

Key:
Type in all cases: functional
Staphylococcus aureus [1] = experiment: Antibacterial activity against Staphylococcus aureus TS2921 harboring ddlA Asp102Asn mutation in fifth-instar silkworm larva infection model assessed as compound concentration per gram of larva […] after 48 hrs post dose at 27 degC
Staphylococcus aureus [2] = experiment: Antibacterial activity against Staphylococcus aureus TS5337 harboring ddlA Pro178Ser mutation after 20 hrs; details: TS5337, 20 h
Staphylococcus aureus [3] = experiment: Antibacterial activity against Staphylococcus aureus TS2921 harboring ddlA Asp102Asn mutation and coexpressing pSddlA which complements temperature sensitivity after 20 hrs; details: TS2921, 20 h
Staphylococcus aureus [4] = experiment: Antibacterial activity against Staphylococcus aureus RN4220 in fifth-instar silkworm larva infection model assessed as compound concentration per gram of larva […] after 48 hrs post dose at 27 degC
Staphylococcus aureus [5] = experiment: Antibacterial activity against Staphylococcus aureus RN4220 after 20 hrs; details: RN4220, 20 h
Staphylococcus aureus [6] = experiment: Antibacterial activity against Staphylococcus aureus TS5337 harboring ddlA Pro178Ser mutation in fifth-instar silkworm larva infection model assessed as compound concentration per gram of larva […] after 48 hrs post dose at 27 degC
Staphylococcus aureus [7] = experiment: Antibacterial activity against Staphylococcus aureus TS10007 harboring ddlA Asp39Asn mutation after 20 hrs; details: TS10007, 20 h
Staphylococcus aureus [8] = experiment: Antibacterial activity against Staphylococcus aureus TS2921 harboring ddlA Asp102Asn mutation in presence of 100 mM D-Ala-D-Ala, which complements temperature sensitivity after 20 hrs; details: TS2921, 20 h
Staphylococcus aureus [9] = experiment: Antibacterial activity against Staphylococcus aureus TS10007 harboring ddlA Asp39Asn mutation in fifth-instar silkworm larva infection model assessed as compound concentration per gram of larva […] after 48 hrs post dose at 27 degC
Staphylococcus aureus [10] = experiment: Antibacterial activity against Staphylococcus aureus TS2921 harboring ddlA Asp102Asn mutation after 20 hrs; details: TS2921, 20 h

SMILES | ED50 (Staphylococcus aureus [1]) [µg] | MIC (Staphylococcus aureus [2]) [µg/mL] | MIC (Staphylococcus aureus [3]) [µg/mL] | ED50 (Staphylococcus aureus [4]) [µg] | MIC (Staphylococcus aureus [5]) [µg/mL] | ED50 (Staphylococcus aureus [6]) [µg] | MIC (Staphylococcus aureus [7]) [µg/mL] | MIC (Staphylococcus aureus [8]) [µg/mL] | ED50 (Staphylococcus aureus [9]) [µg] | MIC (Staphylococcus aureus [10]) [µg/mL]
N[C@@H]1CONC1=O [CYCLOSERINE] | <2.2 | 25 (≈ 245 µM) | > 100 | 40 | 100 (≈ 979 µM) | 5.4 | 50 (≈ 490 µM) | 50 | <2.2 | 12.5 (≈ 122 µM)
O=C(N[C@H](CO)[C@H](O)c1ccc([N+](=O)[O-])cc1)C(Cl)Cl [CHLORAMPHENICOL] | 5.3 | 3.1 (≈ 9.59 µM) | – | 4.9 | 6.3 (≈ 19.5 µM) | – | 3.1 (≈ 9.59 µM) | 3.1 | – | 3.1 (≈ 9.59 µM)
CN[C@H](CC(C)C)C(=O)N[C@H]1C(=O)N[C@@H](CC(N)=O)C(=O)N[C@H]2C(=O)N[C@H]3C(=O)N[C@H](C(=O)N[C@H](C(=O)O)c4cc(O)cc(O)c4-c4cc3ccc4O)[C@H](O)c3ccc(c(Cl)c3)Oc3cc2cc(c3O[C@@H]2O[C@H](CO)[C@@H](O)[C@H](O)[C@H]2O[C@H]2C[C@](C)(N)[C@H](O)[C@H](C)O2)Oc2ccc(cc2Cl)[C@H]1O [VANCOMYCIN] | 0.43 | 0.4 (≈ 0.276 µM) | 0.4 (≈ 0.276 µM) | 0.53 | 0.4 (≈ 0.276 µM) | 0.45 | 0.4 (≈ 0.276 µM) | 1.6 | 0.25 | 0.4 (≈ 0.276 µM)
CO[C@@]1(NC(=O)CSC(F)F)C(=O)N2C(C(=O)O)=C(CSc3nnnn3CCO)CO[C@@H]21 [FLOMOXEF] | 0.031 | 0.2 (≈ 0.403 µM) | 0.4 (≈ 0.806 µM) | 0.054 | 0.4 (≈ 0.806 µM) | 0.031 | 0.4 (≈ 0.806 µM) | 0.4 | 0.048 | 0.2 (≈ 0.403 µM)
CN(C)[C@@H]1C(O)=C(C(N)=O)C(=O)[C@@]2(O)C(O)=C3C(=O)c4c(O)cccc4[C@@](C)(O)[C@H]3C[C@@H]12 [TETRACYCLINE] | 0.7 | 0.063 (≈ 0.142 µM) | 0.063 (≈ 0.142 µM) | 0.68 | 0.063 (≈ 0.142 µM) | 0.75 | 0.063 (≈ 0.142 µM) | 0.031 | 0.35 | 0.063 (≈ 0.142 µM)
CCn1cc(C(=O)O)c(=O)c2cc(F)c(N3CCNCC3)cc21 [NORFLOXACIN] | – | 0.63 (≈ 1.97 µM) | 0.63 (≈ 1.97 µM) | – | 0.63 (≈ 1.97 µM) | – | 0.63 (≈ 1.97 µM) | 0.63 | – | 0.63 (≈ 1.97 µM)
